Values of other authors in article PMC2099433, “The binding site for neohesperidin dihydrochalcone at the human sweet taste receptor” (BMC Structural Biology, 2007).

Columns and labels:
sweet taste [1] = test system: sweet taste; parameters: method as in PMID 831282, PMID 14403185; conditions: cited from earlier work
sweet taste [2] = test system: sweet taste; parameters: method as in PMID 10480680; conditions: humans; cited from earlier work

Row | Structure (SMILES) | taste (sweet taste [1]) | inhibition of the sweet taste of NHDC (sweet taste [2])
1 | COc1ccc(CCC(=O)c2c(O)cc(O)cc2O)cc1O [hesperitin dihydrochalcone] | tastes sweet | 
2 | COc1ccc(OC(C)C(=O)O)cc1 (centres unmarked) [lactisole] |  | did not inhibit the sweet taste of NHDC
